The record followed here is patent US6532386B2, “Electrotransort device comprising blades” (Johnson & Johnson Consumer Companies, Inc., priority 1998, dated 2003).

Data set [1] is described as follows: Transdermal reverse polarity iontophoresis of insulin in pig: blood glucose concentration. The data set is classed as in vivo. The procedure:
The procedure in Example 3 was repeated, except the stratum corneum of the pig was not disrupted with 400 μm blades and reverse polarity iontophoresis was only conducted for 30 minutes. […] Thus, no insulin was apparently delivered during the iontophoresis process.
The procedure in Example 4 was repeated, except 800 μm blades were pressed against the stratum corneum of a diabetic pig before iontophoresis was performed. The blood glucose in the pig was monitored for 9 hours.
The procedure described in Example 5 was then repeated.
The procedure in Example 5 was repeated except that ethyl cyanoacrylate was applied to the surface of the 800 μm blades before the blades were pressed against the skin of the pig. The blades were held against the skin of the pig for 2 minutes prior to performing iontophoresis to allow the ethyl cyanoacrylate to solidify prior to removal. […] The blood glucose concentration in the pig was monitored for 8 hours. The quantity of insulin delivered was so large that the hyperglycemic pig having an initial blood glucose concentration of 180 mg/dl became seriously hypoglycemic with a blood glucose concentration of 25 mg/dl.

The text on data set [2]:
The stratum corneum was physically disrupted by repeatedly scratching the skin of a pig with 400 μm blades 20 times, 10 scratchings in one direction, 10 more in a direction perpendicular to the previous direction. Two electrodes were constructed with hollow 3.5 cm by 3.5 cm by 0.5 cm polystyrene vessels each having a volume of about 5 cm^3. A 3 cm by 3 cm by 0.5 mm piece of stainless steel was adhered to the inside of each polystyrene vessel. The electrodes were affixed to the skin of the pig with Dow Corning 355 Medical Adhesive available from Dow Corning of Midland, Mich.
An insulin solution available as Humulin-®(500 units/mL) from Eli Lilly and Co. of Indianapolis, Ind., was injected into the vessel with a hyperdermic needle. Iontophoresis was performed with direct current at a current intensity of 4 mA over about 12 cm^2 of skin. The electric polarity was manually reversed every 5 minutes for 2 hours. The blood glucose concentration and insulin serum concentration in the pig were periodically measured before, during, and after iontophoresis.
The skin on a pig was wiped generously with 200 proof ethanol and allowed to dry to induce skin permeation enhancement. The procedure described in Example 5 was then repeated. The blood glucose concentration and insulin serum concentration in the pig were monitored for 6 hours. […]

Setting [3] is: Example 5: diabetic pig, 800 μm blades, iontophoresis 30 minutes.

In the case of insulin, the “reduction in blood glucose” value in data set [1] (Comparative Example 4: stratum corneum not disrupted with blades, reverse polarity iontophoresis 30 minutes) was “lack of any reduction in blood glucose”. The blood glucose concentration in data set [1] (Example 3: pig skin scratched with 400 μm blades, iontophoresis 4 mA over about 12 cm^2, polarity reversed every 5 minutes for 2 hours, from 140 mg/dl) worked out at 30 mg/dL; in data set [1] (Example 8: hyperglycemic pig, ethyl cyanoacrylate on 800 μm blades, iontophoresis 120 minutes, initial 180 mg/dl), 25 mg/dL. The “reduction of the blood glucose concentration” value in data set [1] (Example 3: pig skin scratched with 400 μm blades, reverse polarity iontophoresis for 2 hours) is listed as about 80%. Besides, the “reduction in the blood glucose concentration” value in data set [1] (Example 5: diabetic pig, 800 μm blades pressed against stratum corneum, iontophoresis 30 minutes, monitored 9 hours) is listed as about 37%. For the same substance, the “blood glucose level maintained” value in data set [1] (setting [3]) is on record as “below 140 mg/dl”. The “time blood glucose level was maintained below 140 mg/dl” value in data set [1] (setting [3]) is on record as “over 8 hours”. Besides, the “reduction of blood glucose” value is reported as about 50% in data set [1] (Example 6: skin wiped with 200 proof ethanol, 800 μm blades, after 2 hours) and 30% in data set [1] (Example 7: skin pre-treated with Nair lotion (calcium thioglycolate), 800 μm blades, iontophoresis 120 minutes, after 3 hours). In data set [2] (Example 3: pig skin scratched with 400 μm blades, reverse polarity iontophoresis for 2 hours, from 25), the “insulin serum rise (insulin serum concentration)” value is recorded as 590 _IU/ml. Also, in data set [2] (Example 6: skin wiped with 200 proof ethanol, 800 μm blades, after one hour), the serum insulin concentration entry is reported as “approximately 60 _IU/ml”.
